Data taken from patent US12441768B2, “Compositions and methods for treating endometriosis” (EndoMet Biosciences, Inc., priority 2018, dated 2025).
Where a SMILES comes first, the peptide text is derived from it. The star is where a group is joined. Bn = c1ccc(C*)cc1

Key:
[1] = target: Wnt-responsive promoter (TCF/LEF); test: Wnt-dependent luciferase reporter assay; format: cell-based, murine
In short: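 EC50 (uM) derived from inhibition of luminescence in Wnt3a-stimulated murine 3T3 cells expressing luciferase under a TCF/LEF promoter, with peptides added across a concentration range and vehicle as control.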

β-catenin = target: T1, β-catenin (Homo sapiens, UniProt P35222); test: KD50 measurement using competitive fluorescence polarization (FP) with labelled TCF4; format: binding; conditions: fluorescence polarization, β-catenin; for Kd: read-out: β-Cat FP KD
T1 sequence (P35222 1-781): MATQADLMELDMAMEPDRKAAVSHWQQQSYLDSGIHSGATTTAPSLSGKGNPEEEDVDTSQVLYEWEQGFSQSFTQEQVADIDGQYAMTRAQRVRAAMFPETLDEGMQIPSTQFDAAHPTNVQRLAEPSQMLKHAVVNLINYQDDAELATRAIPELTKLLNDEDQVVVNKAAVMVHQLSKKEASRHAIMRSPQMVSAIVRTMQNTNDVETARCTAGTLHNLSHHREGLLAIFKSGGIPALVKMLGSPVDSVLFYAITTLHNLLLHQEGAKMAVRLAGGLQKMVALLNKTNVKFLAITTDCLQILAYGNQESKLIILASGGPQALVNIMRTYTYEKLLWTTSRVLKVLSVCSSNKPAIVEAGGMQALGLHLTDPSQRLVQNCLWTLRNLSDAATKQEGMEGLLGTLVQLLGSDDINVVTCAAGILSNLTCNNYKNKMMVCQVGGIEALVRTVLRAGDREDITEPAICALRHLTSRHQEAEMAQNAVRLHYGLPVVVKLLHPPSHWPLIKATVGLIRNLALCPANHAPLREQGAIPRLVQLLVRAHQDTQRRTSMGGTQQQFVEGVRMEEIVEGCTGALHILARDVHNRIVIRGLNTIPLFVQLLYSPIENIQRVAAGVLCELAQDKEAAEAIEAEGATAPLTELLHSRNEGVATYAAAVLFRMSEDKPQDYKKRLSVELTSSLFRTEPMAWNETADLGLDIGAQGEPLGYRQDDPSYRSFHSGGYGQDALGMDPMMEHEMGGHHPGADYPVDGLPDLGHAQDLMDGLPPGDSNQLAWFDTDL
In short: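 Polarization readout (470 nm excitation, 520 nm emission) tracks loss of labelled TCF4 binding to β-catenin as test compound competes. Conditions were 5 nM tracer, 100 nM β-catenin, room temperature, compound serially diluted from 10 nM to 30 uM; run in triplicate experiments.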

[2] = % Viability non-Wnt responsive cells

SMILES	EC50 [1] [µM]	β-Cat FP Hill slope (β-catenin)	Kd (β-catenin) [µM]	viability [2] [%]
CC[C@H](C)[C@@H]1NC(=O)[C@H](CC(C)C)NC(=O)[C@H](Cc2ccccc2)NC(=O)[C@H](Cc2c[nH]c3ccccc23)NC(=O)[C@H](CCSC)NC(=O)[C@@H](N)CCCCNC(=O)C[C@@H](C(=O)O)NC(=O)[C@H](Cc2c[nH]c3ccccc23)NC(=O)[C@H](Cc2ccccc2)NC(=O)[C@H](CS)NC1=O [compound 170] (HELM PEPTIDE1{K.M.W.F.L.I.C.F.W.D}$PEPTIDE1,PEPTIDE1,1:R3-10:R3$$$V2.0)	15 to 22.5	0.7	1 to 10	107
CC[C@H](C)[C@H](NC(=O)[C@H](CC(C)C)NC(=O)[C@H](Cc1ccccc1)NC(=O)[C@H](Cc1c[nH]c2ccccc12)NC(=O)[C@@H](N)CCSC)C(=O)N[C@@H](CS)C(=O)N[C@@H](Cc1ccccc1)C(=O)N[C@@H](Cc1c[nH]c2ccccc12)C(=O)NCC(=O)O [compound 154] (H-MWFLICFWG-OH)	15 to 22.5	–	> 30	103
CC[C@H](C)[C@H](NC(=O)[C@H](C)NC(=O)[C@H](Cc1ccccc1)NC(=O)[C@H](Cc1c[nH]c2ccccc12)NC(=O)[C@@H](N)CCSC)C(=O)N[C@@H](CO)C(=O)N[C@@H](Cc1ccccc1)C(=O)N[C@@H](Cc1c[nH]c2ccccc12)C(=O)NCC(=O)O [compound 157] (H-MWFAISFWG-OH)	< 7.5	–	> 30	99.9
CC[C@H](C)[C@H](NC(=O)[C@H](Cc1c[nH]c2ccccc12)NC(=O)[C@@H](N)CCSC)C(=O)N[C@@H](CC(C)C)C(=O)N[C@H](C(=O)N[C@@H](C(=O)N[C@@H](Cc1ccccc1)C(=O)N[C@@H](Cc1c[nH]c2ccccc12)C(=O)NCC(=O)O)[C@H](C)O)[C@@H](C)CC [compound 137] (HELM PEPTIDE1{M.W.I.L.I.[dT].F.W.G}$$$$V2.0)	15 to 22.5	0.81	0.4 to 1	93.9
CC[C@H](C)[C@@H]1NC(=O)[C@H](CC(C)C)NC(=O)[C@H](CC(C)C)NC(=O)[C@H](Cc2c[nH]c3ccccc23)NC(=O)[C@@H](N)CCCCNC(=O)C[C@@H](C(=O)O)NC(=O)[C@H](Cc2c[nH]c3ccccc23)NC(=O)[C@H](C)NC(=O)[C@H](CO)NC1=O [compound 206] (HELM PEPTIDE1{K.W.L.L.I.S.A.W.D}$PEPTIDE1,PEPTIDE1,1:R3-9:R3$$$V2.0)	15 to 22.5	–	> 30	98.7
CC[C@H](C)[C@H](NC(=O)[C@H](CC(C)C)NC(=O)[C@H](Cc1c[nH]c2ccccc12)NC(=O)[C@H](Cc1c[nH]c2ccccc12)NC(=O)[C@H](CCSC)NC(=O)[C@H](CCCNC(=N)N)NC(=O)[C@H](CO)NC(=O)[C@@H](N)CCSC)C(=O)N[C@@H](CO)C(=O)N[C@@H](Cc1ccccc1)C(=O)N[C@@H](Cc1c[nH]c2ccccc12)C(N)=O [compound 80] (H-MSRMWWLISFW-NH2)	> 30	–	> 30	101
CC[C@H](C)[C@H](NC(=O)[C@H](CC(C)C)NC(=O)[C@H](Cc1ccccc1)NC(=O)[C@H](Cc1c[nH]c2ccccc12)NC(C)=O)C(=O)N[C@@H](C)C(=O)N[C@@H](Cc1ccccc1)C(=O)N[C@@H](Cc1c[nH]c2ccccc12)C(=O)NCC(=O)O [compound 196] (Ac-WFLIAFWG-OH)	< 7.5	2.58	0.4 to 1	105
CC[C@H](C)[C@H](NC(=O)[C@H](CC(C)C)NC(=O)[C@H](Cc1ccccc1)NC(=O)[C@H](Cc1c[nH]c2ccccc12)NC(=O)[C@@H](N)CCSC)C(=O)N[C@@H](CO)C(=O)N[C@@H](CO)C(=O)N[C@@H](Cc1c[nH]c2ccccc12)C(=O)O [compound 96] (H-MWFLISSW-OH)	7.5 to 15	0.7	10 to 30	97.3
CC[C@H](C)[C@H](NC(=O)[C@H](CC(C)C)NC(=O)[C@H](Cc1ccccc1)NC(=O)[C@H](Cc1c[nH]c2ccccc12)NC(=O)[C@@H](NC(=O)[C@H](CCCNC(=N)N)NC(=O)[C@H](CO)NC(=O)[C@@H](N)CCSC)C(C)C)C(=O)N[C@@H](CO)C(=O)N[C@@H](Cc1ccccc1)C(=O)N[C@@H](Cc1c[nH]c2ccccc12)C(=O)NCC(=O)O [compound 64] (H-MSRVWFLISFWG-OH)	7.5 to 15	0.7	1 to 10	104
CC[C@H](C)[C@H](NC(=O)[C@H](CC(C)C)NC(=O)[C@@H](NC(=O)[C@H](Cc1c[nH]c2ccccc12)NC(=O)[C@H](CCSC)NCc1ccccc1)[C@@H](C)CC)C(=O)N[C@@H](CO)C(=O)N[C@@H](Cc1ccccc1)C(=O)N[C@@H](Cc1c[nH]c2ccccc12)C(=O)NCC(=O)O [compound 223] (HELM PEPTIDE1{[CSCC[C@H](NCc1ccccc1)C(=O)[*:2]].W.I.L.I.S.F.W.G}$$$$V2.0)	< 7.5	0.7	–	101
CC[C@H](C)[C@H](NC(=O)[C@H](CC(C)C)NC(=O)[C@H](Cc1ccccc1)NC(=O)[C@@H](N)Cc1c[nH]c2ccccc12)C(=O)N[C@@H](CO)C(=O)N[C@@H](Cc1ccccc1)C(=O)N[C@@H](Cc1c[nH]c2ccccc12)C(=O)O [compound 110] (H-WFLISFW-OH)	7.5 to 15	3	1 to 10	103
CC[C@H](C)[C@H](NC(=O)[C@H](CC(C)C)NC(=O)[C@H](Cc1ccccc1)NC(=O)[C@H](Cc1c[nH]c2ccccc12)NC(=O)[C@H](CCCCN)NC(=O)[C@H](CCCNC(=N)N)NC(=O)[C@H](CO)NC(=O)[C@@H](N)CCSC)C(=O)N[C@@H](CO)C(=O)N[C@@H](Cc1ccccc1)C(=O)N[C@@H](Cc1c[nH]c2ccccc12)C(N)=O [compound 87] (H-MSRKWFLISFW-NH2)	> 30	–	> 30	114
CC[C@H](C)[C@H](NC(=O)[C@H](CC(C)C)NC(=O)[C@H](Cc1ccccc1)NC(=O)[C@@H](N)Cc1c[nH]c2ccccc12)C(=O)N[C@@H](CO)C(=O)N[C@@H](CO)C(=O)N[C@@H](Cc1c[nH]c2ccccc12)C(=O)O [compound 97] (H-WFLISSW-OH)	22.5 to 30	2.45	1 to 10	102
CC[C@H](C)[C@@H]1NC(=O)[C@H](CC(C)C)NC(=O)[C@H](Cc2ccccc2)NC(=O)[C@H](Cc2c[nH]c3ccccc23)NC(=O)[C@@H](N)CCCCNC(=O)C[C@@H](C(=O)O)NC(=O)[C@H](Cc2c[nH]c3ccccc23)NC(=O)[C@H](C)NC(=O)[C@H](CS)NC1=O [compound 168] (HELM PEPTIDE1{K.W.F.L.I.C.A.W.D}$PEPTIDE1,PEPTIDE1,1:R3-9:R3$$$V2.0)	< 7.5	0.7	1 to 10	99.1
CSCC[C@H](NC(=O)[C@H](CCCNC(=N)N)NC(=O)[C@H](CO)NC(=O)[C@@H](N)CCSC)C(=O)N[C@@H](Cc1c[nH]c2ccccc12)C(=O)N[C@@H](Cc1ccccc1)C(=O)N[C@@H](CC(C)C)C(=O)N[C@H](C(=O)N[C@@H](CO)C(=O)N[C@@H](Cc1ccccc1)C(=O)N[C@@H](Cc1c[nH]c2ccccc12)C(=O)NCC(=O)O)[C@@H](C)O [compound 62] (H-MSRMWFLTSFWG-OH)	> 30	–	> 30	104
CC[C@H](C)[C@H](NC(=O)[C@H](CC(C)C)NC(=O)[C@@H](NC(=O)[C@H](Cc1c[nH]c2ccccc12)NC(=O)[C@@H](N)CCSC)[C@@H](C)CC)C(=O)N[C@@H](COCc1ccccc1)C(=O)N[C@@H](Cc1ccccc1)C(=O)N[C@@H](Cc1c[nH]c2ccccc12)C(=O)NCC(=O)O [compound 146] (H-MWILIS(Bn)FWG-OH)	> 30	–	> 30	99.1
CC[C@H](C)[C@@H]1NC(=O)[C@H](CC(C)C)NC(=O)[C@H](Cc2ccccc2)NC(=O)[C@H](Cc2c[nH]c3ccccc23)NC(=O)[C@H](CCSC)NC(=O)CCCCCNC(=O)C[C@@H](C(=O)O)NC(=O)[C@H](Cc2c[nH]c3ccccc23)NC(=O)[C@H](C)NC(=O)[C@H](CS)NC1=O [compound 192] (HELM PEPTIDE1{[O=C(CCCCCN[*:1])[*:2]].M.W.F.L.I.C.A.W.D}$PEPTIDE1,PEPTIDE1,1:R1-10:R3$$$V2.0)	< 7.5	1.33	< 0.4	103
CC[C@H](C)[C@H](NC(=O)[C@H](CC(C)C)NC(=O)[C@H](Cc1ccccc1)NC(=O)[C@H](Cc1c[nH]c2ccccc12)NC(=O)[C@H](CCCCN)NC(=O)[C@H](CCCNC(=N)N)NC(=O)[C@H](CO)NC(=O)[C@@H](N)CCSC)C(=O)N[C@@H](CO)C(=O)N[C@@H](Cc1ccccc1)C(=O)N[C@@H](Cc1c[nH]c2ccccc12)C(=O)NCC(=O)O [compound 59] (H-MSRKWFLISFWG-OH)	> 30	–	> 30	102
